row,SMILES,melting point
1,"O=C(O)[C@@H]1CSC(c2ccc(-c3ccc(-c4c(Cc5ccccc5)oc5ccccc45)cc3)cc2)N1 (mixture of isomers) [Example 38, (2RS, 4R)-2-[4′-(2-Benzylbenzofuran-3-yl)biphen-4-yl]thiazolidine-4-carboxylic acid]",148 °C (dec.)
2,"O=C(O)[C@@H]1CSC(c2ccc(-c3ccc(-n4ccc5ccccc54)cc3)cc2)N1 (stereo in doubt) [Example 27, 2-(4′-Indol-1-yl-biphen-4-yl)thiazolidine-4-carboxylic acid]",135 to 137 °C (dec.)
3,"O=C(O)C(=O)Nc1cc(-c2ccc(-c3cccc4c3oc3ccccc34)cc2)cn(Cc2ccccc2)c1=O [Example 4, N-[1-Benzyl-5-(4-dibenzofuran-4-yl-phenyl)-2-oxo-1,2-dihydro-pyridin-3-yl]-oxalamic acid]",220 to 223 °C
4,"CCc1ccc(-c2sc(NC(=O)c3ccc(S(=O)(=O)N4CCCC4C(=O)O)cc3)nc2-c2ccc(Cl)cc2)cc1 (stereo not drawn) [Example 5, 1-{4-[4-(4-Chloro-phenyl)-5-(4-ethyl-phenyl)-thiazol-2-ylcarbamoyl]-benzenesulfonyl}-pyrrolidine-2-carboxylic acid]",289 to 292 °C
5,"O=C(O)CCNc1cc(-c2ccc(-c3cccc4c3oc3ccccc34)cc2)nc(Cc2ccccc2)n1 [Example 45, 3-[2-Benzyl-6-(4-dibenzofuran-4-yl-phenyl)-pyrimidin-4-ylamino]-propionic acid]",205 °C (dec.)
6,"O=C(O)CCNc1cc(-c2ccc(-c3cccc4c3oc3ccccc34)cc2)nc(-c2ccccc2)n1 [Example 46, 3-[2-phenyl-6-(4-dibenzofuran-4-yl-phenyl)-pyrimidin-4-ylamino]-propionic acid]",210 °C (dec.)

# Source: US20060122222A1, “Heterocycle substituted carboxylic acids” (The Institutes for Pharmaceutical Discovery, LLC, priority 2004, published 2006)
